In this assay the test system is Plasmodium falciparum. Description: GSK_TCMDC: Inhibition of Plasmodium falciparum 3D7 in whole erythrocytes, using parasite LDH activity as an index of growth. In kind it is functional, organism-based. The following applies: Plasmodium falciparum, 3D7.

For the molecule `COc1cc(C)nc2ccc(NC(=O)c3cc(C(F)(F)F)cc(C(F)(F)F)c3)cc12`, the XC50 came to 912 nM.

The molecule `O=C(Nc1ccc(Cl)cc1F)NC1CCN(CCCCCNC(=O)C2CC2c2ccc(Cl)c(Cl)c2)CC1` (centres undefined) gave an XC50 of 510 nM. Under `CCOc1cc(-c2nnc3[nH]c(=O)n(C)c(=O)c3n2)ccc1OC(C)C` stands 400 nM; under `Clc1ccc(CNCCCCCCCNCc2ccc(Cl)c(Cl)c2)cc1Cl`, 372 nM.

`Cc1ccoc1C(=O)Nc1cccc(-c2cccc(-c3nc4ccccc4[nH]3)c2)c1` registered an XC50 of 1220 nM. Under `CN(C)Cc1ccc(-c2cc3c(-c4ccc(CN(C)C)cc4)ccnc3[nH]2)cc1` stands 887 nM; under `CN1CC=C(C=Cc2c[nH]c3ccccc23)CC1`, 1340 nM; under `CCNc1cc(C(=O)N[C@@H](Cc2ccccc2)[C@H](O)CNC2(CCC(C)C)CC2)cc(N2CCCCS2(=O)=O)c1`, 1080 nM.

The molecule `COc1ccc(C(=O)N2CCC3(CC2)C(=O)N(CC(=O)NCC2CCCCC2)CN3c2ccccc2)cc1` gave an XC50 of 273 nM. Under `O=C(Nc1ccc(Cl)cc1)N[C@H]1CCN(CCCCCNC(=O)C2CC2c2ccc(Cl)c(Cl)c2)C1` (some centres undefined) stands 874 nM; under `CC(=O)Nc1ccc(OCCN(CC(C)C)c2ccc(C#N)c(C(F)(F)F)c2)c(Cl)c1`, 786 nM; under `CC(C)C1C(=O)N(S(C)(=O)=O)C2CCN(C(=O)c3ccc(CN4CCCCC4)c([N+](=O)[O-])c3)C12` (centres undefined), 620 nM. Under `CC1CN(c2cnn(Cc3ccc(NC(=O)Nc4cccc(C(F)(F)F)c4)cc3)c(=O)c2Cl)CC(C)N1` (centres undefined) stands 940 nM. Under `CC(C)(C)C(=O)Nc1c(-c2cc(=O)oc3cc4c(cc23)CCC4)oc2ccccc12` stands 1260 nM; under `CCCCN1CCCC[C@H]1[C@@H](O)c1ccnc2ccc(OCC)cc12`, 773 nM; under `CCN1CCC(N(Cc2ccc(-c3ccc(C(F)(F)F)cc3)cc2)C(=O)Cn2c(CCc3cccc(F)c3F)cc(=O)c3ccccc32)CC1`, 832 nM.

Turning to `N#Cc1cc([N+](=O)[O-])ccc1-n1nc(-c2cccc(Cl)c2)n(Cc2ccco2)c1=S`, the XC50 was 196 nM. Regarding `CCCC(C)n1ccc2c3c(N)nc(N)nc3ccc21` (centres undefined), the XC50 turned out to be 47.6 nM.

The molecule `CCc1c(CCNCCCCCCNCCc2ccc([N+](=O)[O-])cc2)ccc(OC)c1OC` yielded an XC50 of 727 nM.

Take `COc1ccc(CC(C)NCC(O)c2cccc(C(F)(F)F)c2)cc1F` (centres undefined): the XC50 is 827 nM.

`CC(C)CCN(Cc1cncn1Cc1cccc(C(F)(F)F)c1)C(=O)c1ccccc1C#N`: the XC50 stood at 614 nM. Regarding `CCCn1c(=N)c(C(=O)NCCc2ccccc2)cc2c(=O)n3cccc(C)c3nc21`, the XC50 is 1120 nM. Turning to `CCN(CC)CCN(Cc1ccc(-c2ccc(C(F)(F)F)cc2)cc1)C(=O)Cn1c(CCc2cccc(F)c2F)nc(=O)c2ccccc21`, the XC50 stood at 671 nM. Under `CN1CCN(Cc2nc(-c3ccc4c(Nc5ccc(Oc6ccccc6)cc5)ccnc4c3)cs2)CC1` stands 310 nM; under `CCOc1ccccc1C=CC(=O)Nc1ccc2nc(N3CCN(C)CC3)cc(C)c2c1`, 273 nM.

On to `CCCCCC(C)N/C(=N/c1ccccc1Br)Nc1ccc(C#N)cc1O` (centres undefined), for which the XC50 was 751 nM.

Take `Cc1cc(-c2cccc(CNC3CCN(C)CC3)c2)ccc1S(=O)(=O)NC1CCC1`: the XC50 was determined as 731 nM. Under `Cc1cccc2nc(-c3ccc(-c4ccc(CNCc5cccc(N)c5)cc4)s3)[nH]c12` stands 751 nM; under `CC(=O)N1N=C(c2cccs2)Sc2c1nc(-c1ccc(Cl)cc1)n2C(C)=O`, 736 nM.

On to `CN(C(=O)Cc1ccc(Cl)cc1)C1CCN(CCCCCNC(=O)/C=C/c2ccc(Cl)c(Cl)c2)CC1`, for which the XC50 is 719 nM. Under `CC(C)N1CCC(N(Cc2ccc(-c3ccc(C(F)(F)F)cc3)cc2)C(=O)Cn2c(CCc3cccc(F)c3F)cc(=O)c3cn(C)nc32)CC1` stands 1170 nM. Under `CC(=O)Nc1ccc(OCCN(Cc2ccccc2C(F)(F)F)c2ccc(C#N)c(C(F)(F)F)c2)cc1` stands 443 nM; under `O=C(Nc1cccc(-c2ccc(-c3nc4cc(F)ccc4[nH]3)s2)c1)c1cccnc1`, 608 nM. The molecule `CC(C)C[C@H](NC(=O)c1ccc(OCCN2CCOCC2)cc1)C(=O)N[C@H](/C=N/N1CC(=O)NC1=O)CCc1ccccc1` had an XC50 of 277 nM. On to `Cc1cccc2nc(-c3ccc(-c4cccc(CNCC5CCCO5)c4)cc3)[nH]c12` (centres undefined), for which the XC50 turned out to be 700 nM. `CC(C)Oc1ccc(C=CC(=O)Nc2noc3ccccc23)cc1`: the XC50 worked out at 288 nM. Under `COc1ccc2nccc([C@@H](O)CN3CCC(NCc4nc5c(cc4Cl)OCC(=O)N5)C(F)C3)c2c1` (some centres undefined) stands 1320 nM; under `CC(C)C[C@@H](C(=O)N[C@@H](CCCCNC(=O)OCc1ccccc1)C(=O)Nc1nccs1)[C@H](C)N(O)C=O`, 190 nM. With `COc1ccc2nccc([C@@H](O)CN3CCC(NC(=O)/C=C/c4ccnc5ccccc45)CC3)c2c1`, the XC50 is 939 nM. The molecule `O=C(Nc1ccc(Cl)cc1)OCCn1nnnc1C(c1ccc(Cl)cc1)N1CCOCC1` (centres undefined) yielded an XC50 of 1180 nM. `COc1ccc2c(c1)OC(C)(C)CC2=NOS(=O)(=O)c1ccc(C)cc1` displayed an XC50 of 208 nM.

In turn, `Cc1cc(OCCCN2CCC(NS(=O)(=O)c3cccc(Br)c3)C2)c2ccccc2n1` (centres undefined) showed an XC50 of 1210 nM.

The molecule `Nc1nc(N)c2cc(C(F)(F)F)ccc2n1` yielded an XC50 of 1130 nM. Molecule `CC1(C)C(=O)Nc2ccc3c(c21)CC1SC(=O)NN=C31` (centres undefined) returned an XC50 of 1490 nM. Under `O=C(Nc1cccc(-c2ccc(-c3nc4cc(F)ccc4[nH]3)cc2)c1)Nc1ccc(Cl)c(Cl)c1` stands 139 nM.

In turn, `COc1cccc(-c2cc(-c3ccc(NC(=O)c4ccccc4)cc3)c3c(N)ncnc3n2)c1` showed an XC50 of 587 nM. Under `O=C(CSc1ccc(Cl)cc1)NC1CCC(CN2CCC(c3c[nH]c4ccccc34)CC2)CC1` (centres undefined) stands 934 nM. Under `CC[C@H](C)CNC(=O)c1ccnc(-c2ccc(CNC3Cc4ccccc4C3)cc2)c1` stands 569 nM; under `Cc1cc(-c2nc3cc(C(=N)N)ccc3[nH]2)c(C)cc1-c1nc2cc(C(=N)N)ccc2[nH]1`, 397 nM; under `COc1cc([N+](=O)[O-])ccc1NC(=O)Nc1ccc(OC(F)(F)F)cc1`, 1030 nM. Under `CN(Cc1ccccc1)C1CCCN(c2cc(NC(=O)c3ccc(F)cc3)ccn2)C1` (centres undefined) stands 988 nM; under `COc1cc(-c2nc(-c3ccncc3)c(-c3ccc4c(c3)CCC4=NO)[nH]2)ccc1OCCN1CCN(C)CC1`, 756 nM; under `Cc1cc(NC(=O)c2ccsc2)ccc1OC1CCN(Cc2ccc(F)cc2)CC1`, 1220 nM. `COc1ccccc1C(=O)N1CCN(Cc2cccs2)CC1` yielded an XC50 of 869 nM. In turn, `Cc1ccc(CC(C)NCC(O)c2cccc(C(F)(F)F)c2)cc1` (centres undefined) yielded an XC50 of 981 nM. In turn, `O=C(Nc1ccc(C2=NC3CCCCC3N2)cc1)Nc1ccc(C2=NC3CCCCC3N2)cc1` (centres undefined) showed an XC50 of 179 nM. On to `COc1cc(OC)cc(C(=O)Nc2ccc(Nc3nc(C)cc(N(C)C)n3)cc2)c1`, for which the XC50 came to 646 nM. Under `CN1CCCN(Cc2ccc(-c3ccc(NC(=O)c4ccc(C#N)cc4)cc3)cc2)CC1` stands 1020 nM; under `CC(C)(C)OC(=O)Cn1cnc2cc(NC(=O)c3cc([N+](=O)[O-])cc([N+](=O)[O-])c3)ccc21`, 312 nM; under `O=C(Nc1ccc(C(=O)N2CCN(CCN3CCN(c4cccc(C(F)(F)F)c4)CC3)CC2)cc1)c1ccc(C(F)(F)F)cc1`, 690 nM.

In turn, `CC(C)C1=C[C@H]2C[C@]3(C4OCCO4)[C@@H]4CC[C@@H](C)[C@H]4C[C@@]2(C(=O)OCC2COCO2)[C@]13C(=O)OC(c1ccccc1)c1ccccc1` (some centres undefined) showed an XC50 of 855 nM. Under `COc1ccc2nccc([C@@H](O)CN3CCC(NCc4cc5ccc(Cl)cc5[nH]4)CC3)c2c1` stands 121 nM; under `CNC(=O)CC(=O)NCCc1ccc(Cl)cc1`, 811 nM; under `Cc1ccc(C2(C)CC(C)(C)N(C(=O)COc3ccc4ccccc4c3)c3ccccc32)cc1` (centres undefined), 113 nM. Take `OC(c1ccccc1)C1CN(Cc2ccccc2)CCC1(O)c1ccccc1` (centres undefined): the XC50 was 846 nM. Under `Cc1noc(C)c1-c1cccc(CNCc2ccc(-c3ccc(-c4nc5ccccc5[nH]4)s3)cc2)c1` stands 556 nM. Under `N=C(N)NC(=O)Nc1cc(Cl)c(Cl)c(Cl)c1` stands 588 nM. `O=C(Nc1cccc(CN2CCN(C(=O)c3cccc(F)c3)CC2)c1)c1cccs1` registered an XC50 of 372 nM. Under `Cc1cc(N[C@@H](CC(C)C)C(=O)NCc2cccs2)nc(NCCc2ccccc2)n1` stands 1190 nM; under `Cc1noc(C)c1-c1ccc2c(Nc3ccc(C(F)(F)F)cc3)c(C(N)=O)cnc2c1`, 319 nM; under `CCc1cc(C(=O)c2cccc(C)c2)c(NC(=O)CN2CCN(C(=O)c3ccco3)CC2)s1`, 451 nM. `CCOc1c(CNCCCCCCNCc2ccc3ccccc3c2OCC)ccc2ccccc12` displayed an XC50 of 759 nM.

`CC(C)(C)c1ccc(OCCCON2C(N)=NC(N)=NC2(C)C)cc1` yielded an XC50 of 3.2 nM.

The molecule `CC1CCN(c2nc(C(=O)Nc3ccc(F)cc3C(F)(F)F)c(C(C)C)s2)CC1` displayed an XC50 of 229 nM.

The molecule `Cc1ccccc1C1CCN(c2ccc(C(=O)NC3CC3)cn2)CC1` came in with an XC50 of 846 nM. The molecule `CCOc1ccc(C(=O)Nc2cc3c(c(C(F)(F)F)c2)CCNC3)cc1Cl` registered an XC50 of 1060 nM.

With `CCn1c(SC)nnc1C1CCCN(CC(=O)Nc2nc3ccc(OC)cc3s2)C1` (centres undefined), the XC50 is 746 nM. Regarding `O=C(Nc1ccc(-c2cccc(-c3nc4cc(C(F)(F)F)ccc4[nH]3)c2)cc1)Nc1ccc(F)c(F)c1F`, the XC50 stood at 706 nM.

`Cc1ccc(Nc2nc(C)cc(NC3CCN(C)CC3)n2)cc1` yielded an XC50 of 497 nM. Under `COc1cc2nc(NCc3cccc(CNC(=O)c4ccc(-c5ccc(C(C)=O)cc5)cc4)c3)nc(N)c2cc1OC` stands 118 nM; under `CCC(CC)CN1C(=O)C(C)(c2ccccc2)N=C1N` (centres undefined), 1060 nM; under `CCCCCC(C)C(C)c1cc(O)c2c(c1)OC1(C(C)C)CC(O)C(C)C2C1` (centres undefined), 985 nM.

In the case of `O=C(Nc1cccc(CN2CCN(C(=O)c3ccccc3)CC2)c1)c1ccco1`, the XC50 is 886 nM.

`CN(C)CCNC(=O)c1ccc2c(c1)n(C1CCN(S(=O)(=O)c3ccc(-c4ccccc4)cc3)CC1)c(=O)n2CC1CCCCC1` registered an XC50 of 624 nM.

Values taken from ChEMBL document CHEMBL1157539, “Thousands of chemical starting points for antimalarial lead identification” (Nature, 2010).
